The values that follow come from patent US20250268897A1, “USE OF HETEROCYCLIC COMPOUND IN TREATING DISEASES RELATED TO KINASE DRUG-RESISTANT MUTATION AND METHOD THEREFOR” (Sichuan Kelun-Biotech Biopharmaceutical Co., Ltd., priority 2021, published 2025).

What all share (type): biochemical
Test [1] has as its target RET-G810R enzyme (Homo sapiens (Human), UniProt P07949, G810R). In words: RET inhibition experiment, HTRF KinEASE-TK kit, RET-G810R.
In test [2] the target is RET-G810S enzyme (Homo sapiens (Human), UniProt P07949, G810S). The test can be described thus: RET inhibition experiment, HTRF KinEASE-TK kit, RET-G810S. As to conditions: for Inhibition rate on RET-G810S (%) / inhibition at 0.3 µM: compound concentration 300 nM; for inhibition at 0.3 µM: read-out: Inhibition rate on RET-G810S (%); for IC50: Table 4. A general note: In TR-FRET formats the signal depends on donor and acceptor labels being close together.

Test [3] has as its target RET-G810C enzyme (Homo sapiens (Human), UniProt P07949, G810C). The test can be described thus: RET inhibition experiment, HTRF KinEASE-TK kit, RET-G810C. As to conditions: for Inhibition rate on RET-G810C (%): compound concentration 300 nM; for IC50: Table 6.

Chain of RET-G810C enzyme (P07949 29-1114 G810C): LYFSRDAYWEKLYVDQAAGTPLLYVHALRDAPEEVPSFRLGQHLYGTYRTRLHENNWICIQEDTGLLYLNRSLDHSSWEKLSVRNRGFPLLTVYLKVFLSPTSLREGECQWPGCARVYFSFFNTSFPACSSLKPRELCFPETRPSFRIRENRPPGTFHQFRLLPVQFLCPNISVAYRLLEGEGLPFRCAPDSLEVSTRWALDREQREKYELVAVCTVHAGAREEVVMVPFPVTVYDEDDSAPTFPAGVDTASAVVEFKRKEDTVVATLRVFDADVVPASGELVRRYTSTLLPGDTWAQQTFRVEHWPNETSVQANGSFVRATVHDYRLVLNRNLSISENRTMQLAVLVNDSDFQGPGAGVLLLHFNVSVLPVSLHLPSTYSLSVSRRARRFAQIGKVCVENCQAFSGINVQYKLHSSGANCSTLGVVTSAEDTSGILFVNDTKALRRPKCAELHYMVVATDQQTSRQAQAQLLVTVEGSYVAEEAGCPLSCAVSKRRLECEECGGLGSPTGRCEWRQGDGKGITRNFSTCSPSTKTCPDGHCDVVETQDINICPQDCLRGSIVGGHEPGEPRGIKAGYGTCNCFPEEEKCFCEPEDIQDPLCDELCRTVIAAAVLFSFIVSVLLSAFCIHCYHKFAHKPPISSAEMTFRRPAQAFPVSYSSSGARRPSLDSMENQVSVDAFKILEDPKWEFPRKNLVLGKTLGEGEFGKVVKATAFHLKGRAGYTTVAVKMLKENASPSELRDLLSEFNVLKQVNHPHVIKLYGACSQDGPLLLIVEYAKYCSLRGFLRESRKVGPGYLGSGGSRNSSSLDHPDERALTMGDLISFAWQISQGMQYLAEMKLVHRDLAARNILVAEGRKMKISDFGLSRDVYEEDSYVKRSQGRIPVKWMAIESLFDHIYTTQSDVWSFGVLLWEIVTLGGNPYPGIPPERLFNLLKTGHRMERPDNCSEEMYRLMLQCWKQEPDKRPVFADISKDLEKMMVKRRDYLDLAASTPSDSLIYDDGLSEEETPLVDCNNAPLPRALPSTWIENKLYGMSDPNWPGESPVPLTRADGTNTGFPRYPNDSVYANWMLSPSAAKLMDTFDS
Chain of RET-G810S enzyme (P07949 29-1114 G810S): as the sequence (P07949 29-1114 G810C) above, with C782S counted along it
Chain of RET-G810R enzyme (P07949 29-1114 G810R): as the sequence (P07949 29-1114 G810C) above, with C782R counted along it

On to `Cc1ccc(CN2C3CC2CN(c2ccc(-c4nc(C)cc(Nc5cc(C)[nH]n5)n4)cn2)C3)cc1` [Compound 2], for which, in test [1] (compound concentration 300 nM), the “Inhibition rate on RET-G810R (%)” value was 70.41 ± 4.57%. As to `Cc1cc(Nc2cc(C)[nH]n2)nc(-c2ccc(N3CC4CC(C3)N4Cc3ccc(Cl)cn3)nc2)n1` [Compound 3], the “Inhibition rate on RET-G810R (%)” value in test [1] (compound concentration 300 nM) came to 72.49 ± 3.15%. As to `Cc1cnn(-c2ccc(CN3C4CC3CN(c3ccc(-c5nc(C)cc(Nc6cc(C)[nH]n6)n5)cn3)C4)cn2)c1` [Compound 4], the “Inhibition rate on RET-G810S (%)” value in test [2] is recorded as 98.89 ± 0.18%. For the same compound, the “Inhibition rate on RET-G810R (%)” value in test [1] (compound concentration 300 nM) came to 78.98 ± 0.24%.

A word on the IC50: it is the concentration that inhibits the measured activity by half. `Cc1cc(Nc2cc(C)[nH]n2)nc(-c2ccc(N3CC4CC(C3)N4Cc3ccc(-n4cccn4)nc3)nc2)n1` [Compound 5]: in test [2], the “Inhibition rate on RET-G810S (%)” value is 97.89 ± 0.57%. In test [1] (Table 2), this compound gave an IC50 of 185 nM. On to `Cc1cc(Nc2cc(C)[nH]n2)nc(-c2ccc(N3CC4CC(C3)N4Cc3ccc(-n4cccn4)cc3)nc2)n1` [Compound 6], for which the “Inhibition rate on RET-G810S (%)” value in test [2] worked out at 83.01 ± 1.42%. For the same compound, the “Inhibition rate on RET-G810R (%)” value in test [1] (compound concentration 300 nM) is 77.16 ± 3.87%. Regarding `Cc1cc(Nc2cc(C)[nH]n2)nc(-c2ccc(N3CC4CC(C3)N4Cc3ccc(-n4cc(F)cn4)cc3)nc2)n1` [Compound 7], in test [2], the “Inhibition rate on RET-G810S (%)” value amounted to 91.80 ± 0.98%. Same read-out and setting: for `Cc1cc(Nc2cc(C)[nH]n2)nc(-c2ccc(N3CC4CC(C3)N4Cc3ccc(-n4ccc(F)n4)nc3)nc2)n1` [Compound 8] the value was 83.73 ± 3.16%.

One may read the inhibition as the share of the control response that was lost under treatment. On to `Cc1cc(Nc2cc(C)[nH]n2)nc(-c2ccc(N3CC4CC(C3)N4Cc3ccc(-n4cc(Cl)cn4)nc3)nc2)n1` [Compound 9, 2-(6-(6-((6-(4-chloro-1H-pyrazol-1-yl)pyridin-3-yl)methyl)-3,6-diazabicyclo [3.1.1]heptan-3-yl)pyridin-3-yl)-6-methyl-N-(5-methyl-1H-pyrazol-3-yl) pyrimidin-4-amine], for which the inhibition at 0.3 µM in test [2] stood at 97.64 ± 0.19%; in test [1] (compound concentration 300 nM, read-out: Inhibition rate on RET-G810R (%)), 78.6 ± 4.5%. For the compound `Cc1cc(Nc2cc(C)[nH]n2)nc(-c2ccc(N3CC4CC(C3)N4Cc3ccc(-n4cnc(F)c4)nc3)nc2)n1` [Compound 10], the “Inhibition rate on RET-G810S (%)” value in test [2] is given as 88.46 ± 2.23%. In addition, the “Inhibition rate on RET-G810R (%)” value in test [1] (compound concentration 300 nM) is given as 72.78 ± 1.58%.

With `Cc1cc(Nc2cc(C)[nH]n2)nc(-c2ccc(N3CC4CC(C3)N4Cc3ccc(-n4nccc4C4CC4)nc3)nc2)n1` [Compound 11], the “Inhibition rate on RET-G810S (%)” value in test [2] was determined as 90.87 ± 1.13%. Still for that read-out and setting: for `Cc1cc(Nc2cc(C)[nH]n2)nc(-c2ccc(N3CC4CC(C3)N4Cc3ccc(-n4cc(F)cn4)nc3)nc2)c1` [Compound 13] the value was 97.21 ± 1.01%.

For `Cc1cc(Nc2cc(C)[nH]n2)nc(-c2ccc(N3CC4CC(C3)N4Cc3ccc(-n4nccc4C4CC4)cc3)nc2)n1` [Compound 14, 2-(6-(6-(4-(5-cyclopropyl-1H-pyrazol-1-yl)benzyl)-3,6-diazabicyclo [3.1.1]heptan-3-yl)pyridin-3-yl)-6-methyl-N-(5-methyl-1H-pyrazol-3-yl) pyrimidin-4-amine], in test [2], the inhibition at 0.3 µM was 92.56 ± 0.08%. Regarding `Cc1cc(Nc2cc(C)[nH]n2)nc(-c2ccc(N3CC4CC(C3)N4Cc3ccc(-n4ccc(C5CC5)n4)cc3)nc2)n1` [Compound 15, 2-(6-(6-(4-(3-cyclopropyl-1H-pyrazol-1-yl)benzyl)-3,6-diazabicyclo [3.1.1]heptan-3-yl)pyridin-3-yl)-6-methyl-N-(5-methyl-1H-pyrazol-3-yl) pyrimidin-4-amine], the inhibition at 0.3 µM in test [2] stood at 97.22 ± 0.39%.

As for `Cc1cc(Nc2cc(C)[nH]n2)nc(-c2ccc(N3CC4CC(C3)N4Cc3ccc(-c4ccc(C)o4)nc3)nc2)n1` [Compound 16], the “Inhibition rate on RET-G810S (%)” value in test [2] amounted to 85.27 ± 0.37%. The same measure, in the same setting: for `Cc1cc(Nc2cc(C)[nH]n2)nc(-c2ccc(N3CC4CC(C3)N4Cc3ccc(-n4ccc(F)n4)cc3)nc2)n1` [Compound 17] the value was 90.64 ± 0.68%. With `Cc1cc(Nc2cc(C)[nH]n2)nc(-c2ccc(N3CC4CC(C3)N4Cc3ccc(-n4nccc4OC4CC4)nc3)nc2)n1` [Compound 19], in test [2], the “Inhibition rate on RET-G810S (%)” value was determined as 80.98 ± 7.32%. In test [3], the “Inhibition rate on RET-G810C (%)” value is 82.80 ± 3.66%.

Turning to `Cc1cc(Nc2cc(C)[nH]n2)nc(-c2ccc(N3CC4CC(C3)N4Cc3ccc(-n4ncc(F)c4C)nc3)nc2)n1` [Compound 20], the “Inhibition rate on RET-G810S (%)” value in test [2] amounted to 96.67 ± 0.03%. In addition, the “Inhibition rate on RET-G810C (%)” value in test [3] worked out at 86.86 ± 1.73%.

For the compound `Cc1cc(Nc2cc(C)[nH]n2)nc(-c2ccc(N3CC4CC(C3)N4Cc3ccc(-c4ccc[nH]4)nc3)nc2)n1` [Compound 21], the figures for the IC50 in test [2] and in test [3] were 6.61 nM and 173 nM, respectively. As to `Cc1cc(Nc2cc(C)[nH]n2)nc(-c2ccc(N3CC4CC(C3)N4Cc3ccc(-n4ncc(F)c4C4CC4)nc3)nc2)n1` [Compound 22], in test [3], the “Inhibition rate on RET-G810C (%)” value is reported as 84.26 ± 6.82%. As to `Cc1cc(Nc2cc(C)[nH]n2)nc(-c2ccc(N3CC4CC(C3)N4Cc3ccc(-n4ccc(C(C)(C)O)n4)nc3)nc2)n1` [Compound 24, 2-(1-(5-((3-(5-(4-methyl-6-((5-methyl-1H-pyrazol-3-yl)amino)pyrimidin-2-yl)pyridin-2-yl)-3,6-diazabicyclo [3.1.1]heptan-6-yl)methyl)pyridin-2-yl)-1H-pyrazol-3-yl) propan-2-ol], in test [2], half-maximal inhibition (IC50) was put at 57.2 nM. Regarding `Cc1cc(Nc2cc(C)[nH]n2)nc(-c2ccc(N3CC4CC(C3)N4Cc3ccc(-c4ccn[nH]4)nc3)nc2)n1` [Compound 25], in test [2], the “Inhibition rate on RET-G810S (%)” value stood at 97.26 ± 0.72%. On the same count and under the same terms, for `Cc1cc(Nc2cc(C)[nH]n2)nc(-c2ccc(N3CC4CC(C3)N4Cc3ccc(-c4cscn4)nc3)nc2)n1` [Compound 26] the value was 97.83 ± 0.32%. `Cc1cc(Nc2cc(C)[nH]n2)nc(-c2ccc(N3CC4CC(C3)N4Cc3ccc(-c4ccc(F)[nH]4)nc3)nc2)n1` [Compound 27] returned an IC50 in test [2] of 23.1 nM. The “Inhibition rate on RET-G810C (%)” value in test [3] was determined as 82.66 ± 2.47%. Turning to `Cc1cc(Nc2cc(C)[nH]n2)nc(-c2ccc(N3CC4CC(C3)N4Cc3ccc(-n4nc(F)cc4C)nc3)nc2)n1` [Compound 28, 2-(6-(6-((6-(3-fluoro-5-methyl-1H-pyrazol-1-yl)pyridin-3-yl)methyl)-3,6-diazabicyclo [3.1.1]heptan-3-yl)pyridin-3-yl)-6-methyl-N-(5-methyl-1H-pyrazol-3-yl) pyrimidin-4-amine], the inhibition at 0.3 µM in test [2] is 90.8 ± 1.24%. The same measure, in the same setting: as for `Cc1cc(Nc2cc(C)[nH]n2)nc(-c2ccc(N3CC4CC(C3)N4Cc3ccc(-c4ccco4)nc3)nc2)n1` [Compound 29, 2-(6-(6-((6-(furan-2-yl)pyridin-3-yl)methyl)-3,6-diazabicyclo [3.1.1]heptan-3-yl)pyridin-3-yl)-6-methyl-N-(5-methyl-1H-pyrazol-3-yl) pyrimidin-4-amine], the figure is 93.21 ± 0.91%. Take `Cc1cc(Nc2cc(C)[nH]n2)nc(-c2ccc(N3CC4CC(C3)N4Cc3ccc(-n4cc(F)c(C(C)(C)O)n4)nc3)nc2)n1.O=C(O)/C=C/C(=O)O` [Compound 30-A, Fumarate of 2-(4-fluoro-1-(5-((3-(5-(4-methyl-6-((5-methyl-1H-pyrazol-3-yl)amino)pyrimidin-2-yl)pyridin-2-yl)-3,6-diazabicyclo [3.1.1]heptan-6-yl)methyl)pyridin-2-yl)-1H-pyrazol-3-yl) propan-2-ol]: the “Inhibition rate on RET-G810S (%)” value in test [2] is 99.01 ± 0.15%. The compound also returned a concentration for half-maximal inhibition (IC50) in test [3] of 125 nM.
